Laboratory results reported in patent US6160006A (priority 1997, dated 2000).
Where two headings read alike, the source gives them in different places. Blank lines part the entries; values can stand above or below the molecule they belong to.

What was measured:
P450 [1] = conditions: in vivo, treated rats; cited from earlier work
cytochrome P450 [2] = conditions: cited from earlier work
P450 [3] = conditions: oral erythromycin; oral and IV midazolam; cited from earlier work
P450 2B1 = conditions: cited from earlier work
P450 2B4 = conditions: cited from earlier work
oxidative metabolism = conditions: in vitro; cited from earlier work
CYP3A4 = conditions: human, in vivo; cited from earlier work
CYP3A [4] = conditions: cited from earlier work
CYP3A [5] = assay: CYP3A activity: 6β-hydroxytestosterone formation from testosterone in rat liver microsomes
Method: (§1) Measurement of CYP3A Activity. CYP3A activity was assessed by measuring the formation rate of 6β-hydroxytestosterone from testosterone in dexamethasone-induced liver microsomes from male Sprague-Dawley rats (Human Biologics Inc., Phoenix, Az.) using incubation conditions identical to those described previously. Edwards, D. J. et al., Life Sci. 59:1025-1030 (1996). […] Siess, M.-H. et al., Toxicol. Appl. Pharmacol. 130:73-78 (1995). In addition, 6β-hydroxytestosterone formation was also measured in human lymphoblast microsomes containing CYP3A4 expressed from transfected human CYP3A4 cDNA (Gentest Corporation, Woburn, Mass.).
(§2) HPLC Procedures and instrumentation. […] Methylene chloride (4 ml) was added and samples were vortex mixed for 2 minutes. After centrifugation, the organic phase was evaporated, the residue re-constituted in 200 μl of mobile phase (55% methanol in water) and injected (100 μl) onto the column (Partisil 5 ODS-3 25 cm C18 column, Whatman Inc., Clifton, N.J.). A mobile phase flow rate of 1.2 ml/minute was used with detection of analytes at 254 nm (Waters 490E multiwavelength UV detector, Waters Corp., Milford, Mass.).
Metabolic Experiments. Grapefruit juice (1 ml) was extracted into methylene chloride and, following evaporation of the organic phase, the residue was reconstituted in mobile phase and chromatographed by HPLC. Fractions of the HPLC eluent were collected at 3-4 minute intervals following injection, evaporated and the effect of the residue on 6β-hydroxytestosterone formation examined. […] Edwards, D. J. et al., Life Sci. 59:1025-1030 (1996). The effect of these solutions on 6β-hydroxytestosterone formation was compared using analysis of variance (SYSTAT for Windows™, Version 5.0) with the Tukey test for post-hoc analysis (p<0.05 for significance).

CYP3A [6] = conditions: co-administration; cited from earlier work
P450 1A1 = conditions: cited from earlier work
P450 1A2 = conditions: cited from earlier work
cytochrome P450 [7] = conditions: dose far in excess of the amount in grapefruit juice; cited from earlier work
human CYP3A4 = human CYP3A4 (Homo sapiens, UniProt P08684); assay: 6β-hydroxytestosterone formation in human lymphoblast microsomes containing CYP3A4 expressed from transfected human CYP3A4 cDNA
Method: as §1, §2
Metabolic Experiments. Grapefruit juice (1 ml) was extracted into methylene chloride and, following evaporation of the organic phase, the residue was reconstituted in mobile phase and chromatographed by HPLC. […]

CYP3A4 (3A4) = assay: Inhibition of CYP3A4 in a purified enzyme preparation; type: biochemical
[8] = Solubility in ethanol versus water; type: physicochemical; conditions: ethanol vs water
P450 3A4 [9] = target: T1, P450 3A4 (Homo sapiens, UniProt P08684); conditions: for inhibition: e. coli membranes
P450 3A4 [10] = target: T1, P450 3A4; assay: Inactivation of P450 3A4 in human liver microsomes (testosterone 6β-hydroxylation, P450 content); type: biochemical; set-up: The human liver microsomes was prepared by differential centrifugation; from tissue; host or cells: human liver (microsomes); conditions: for P450 Content / Testosterone 6-β hydroxylation: 400 μM DHB, 15 min, 37° C., pH 7.5
Method: Inactivation of P450 3A4 in human liver microsomes and E. coli membranes. […] At end of the incubation, 100 μl of the incubation mixture was taken for determination of testosterone 6β-hydroxylation activity. The other aliquot was used for P450 determination by the method of Omura and Sato. Ducharme, M. P. et al., Clin. Pharmacol. Ther. 57:485-491 (1995). The human liver microsomes was prepared by differential centrifugation.
Determination of testosterone 6β-hydroxylation. The human liver microsomes or the P450 3A4 and reductase containing E. coli membrane fractions ([…] of P450) were incubated with 200 μM testosterone in 1 ml of 50 mM Hepes buffer (pH 7.5). The reactions were initiated by the addition of 1 mM NADPH and terminated by 1 ml of ethyl acetate in ice. The 6β-hydoxytestosterone product was determined by HPLC on a C18 column (Microsorb-MV, 5 μm, 4.6×15 cm) eluted with a mobile phase of 65% of methanol at flow rate of 1 ml/min and the eluate was monitored by UV detection at 254 nm.

[11] = preincubation with DHB and NADPH

Chain of human CYP3A4 (P08684 whole entry): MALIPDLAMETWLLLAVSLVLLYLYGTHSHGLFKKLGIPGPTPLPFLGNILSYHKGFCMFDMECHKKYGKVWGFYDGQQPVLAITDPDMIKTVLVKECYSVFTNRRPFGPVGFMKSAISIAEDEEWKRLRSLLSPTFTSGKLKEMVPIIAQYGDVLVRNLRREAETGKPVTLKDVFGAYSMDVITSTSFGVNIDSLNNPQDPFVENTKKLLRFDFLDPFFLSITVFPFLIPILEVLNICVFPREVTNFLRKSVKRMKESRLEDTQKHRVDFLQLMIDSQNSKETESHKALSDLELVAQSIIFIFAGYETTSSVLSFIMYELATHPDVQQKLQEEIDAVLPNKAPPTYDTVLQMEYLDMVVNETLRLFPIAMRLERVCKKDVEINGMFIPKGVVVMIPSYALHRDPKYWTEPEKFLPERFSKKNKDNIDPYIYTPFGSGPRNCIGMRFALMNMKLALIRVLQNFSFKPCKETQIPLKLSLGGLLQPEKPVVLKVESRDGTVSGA

Molecule: COc1c2occc2cc2ccc(=O)oc12 [8-methoxyporalen]
- heme fragment, MI complex and heme adduct formation (P450 [1]): no heme fragment, MI complex and heme adduct formation

Molecule: chlorophyllin
- inhibition of cytochrome P450 activity (cytochrome P450 [2]): non-specific inhibition of cytochrome P450 activity

Molecule: CC[C@H]1OC(=O)[C@H](C)[C@@H](O[C@H]2C[C@@](C)(OC)[C@@H](O)[C@H](C)O2)[C@H](C)[C@@H](O[C@@H]2O[C@H](C)C[C@H](N(C)C)[C@H]2O)[C@](C)(O)C[C@@H](C)C(=O)[C@H](C)[C@@H](O)[C@]1(C)O [erythromycin]
- metabolism of midazolam (P450 [3]): impaired the metabolism of midazolam after both oral and IV administration

Molecule: C#Cc1cc2ccccc2c2ccccc12 [9-ethynylphenanthrene]
- mechanism based inactivation (P450 2B1): mechanism based inactivation
- mechanism based inactivation (P450 2B4): mechanism based inactivation

Molecule: C[C@@H]1O[C@@H](O[C@H]2[C@H](Oc3cc(O)c4c(c3)O[C@H](c3ccc(O)cc3)CC4=O)O[C@H](CO)[C@@H](O)[C@@H]2O)[C@H](O)[C@H](O)[C@H]1O [naringin]
- inhibition of oxidative metabolism (oxidative metabolism): weak inhibitor
- effect on disposition of substrates for CYP3A4 (CYP3A4): did not significantly affect
- inhibition of CYP3A / contribution to it (CYP3A [4]): do not significantly contribute

Molecule: C#Cc1ccc2c(ccc3ccccc32)c1 [2-ethynylphenanthrene]
- mechanism based inactivation (P450 2B1): mechanism based inactivation
- mechanism based inactivation (P450 2B4): mechanism based inactivation

Molecule: CC(=O)N1CCN(c2ccc(OCC3COC(Cn4ccnc4)(c4ccc(Cl)cc4Cl)O3)cc2)CC1 (centres unmarked) [ketoconazole, reference compound]
- bioavailability of cyclosporine (CYP3A [6]): increases bioavailability

Molecule: O=C1C[C@@H](c2ccc(O)cc2)Oc2cc(O)cc(O)c21 [naringenin]
- inhibition of CYP3A / contribution to it (CYP3A [4]): do not significantly contribute

Molecule: COc1c2ccoc2cc2cc(C)oc(=O)c12 [coriandrin]
- binding to apoP450 (P450 1A1): covalent binding
- binding to apoP450 (P450 1A2): covalent binding

Molecule: O=c1c(O)c(-c2ccc(O)c(O)c2)oc2cc(O)cc(O)c12 [quercetin]
- effect on cytochrome P450 activity (cytochrome P450 [7]): no effect

- IC50 (CYP3A [5]; microsomes): 25000 nM
- IC50 (human CYP3A4): 1000 to 2000 nM
- solubility, in words [8]: much more soluble in ethanol than water
- inhibition (P450 3A4 [9]): ~45%
- inhibition (P450 3A4 [9]; 15 min): 90%
- P450 Content (P450 3A4 [10]; +NADPH/+DHB): 0.87 nmol/mL
- Testosterone 6-β hydroxylation (P450 3A4 [10]; +NADPH/+DHB): 0.18 nmol/nmol P450/min
- P450 Content (P450 3A4 [10]; -NADPH/+DHB): 0.93 nmol/mL
- Testosterone 6-β hydroxylation (P450 3A4 [10]; -NADPH/+DHB): 0.37 nmol/nmol P450/min
- P450 3A4 activity inhibition, in words (P450 3A4 [10]; human liver microsomes): significantly inhibited
- P450 retained (reduced-CO spectrum) (P450 3A4 [10]; [11]): about 90%
- loss of P450 3A4 catalytic activity (P450 3A4 [10]; [11]): 70%
- inhibition at 20 µM (P450 3A4 [10]; without preincubation, final concentration of 20 μM, read-out: testosterone 6β-hydroxylase activity inhibited (competitive inhibition)): ~30%
Molecule: C/C(=C\COc1c2ccoc2cc2oc(=O)ccc12)CCC(O)C(C)(C)O (centres unmarked) [6',7'-dihydroxybergamottin]
- inhibition, concentration dependence and need of pre-incubation (CYP3A [5]): inhibition is concentration-dependent and requires no pre-incubation with microsomes
- inactivation of 3A4, in words (CYP3A4 (3A4)): potent NADPH- and time dependent inactivator of 3A4
- inactivation of 3A4, in words (P450 3A4 [9]; human 3A4 expressed in E. coli membrane): potent NADPH- and time dependent inactivator of 3A4
- effect of GSH on inactivation (P450 3A4 [10]; 2 mM GSH in the incubation system): not inhibited by the presence of 2 mM GSH
- inhibition of 6β-hydroxytestosterone formation activity, mode (P450 3A4 [10]; FIG. 4, human liver microsomes): time and concentration dependent as well as requiring catalytic turnover
- inactivation of 3A4, in words (P450 3A4 [10]; human liver microsomes): potent NADPH- and time dependent inactivator of 3A4
